# Source: patent US20240353410A1, “FRET ENZYMATIC SUBSTRATE AND USES THEREOF IN LIVER CANCER” (URTESTE S.A., priority 2021, published 2024)
# Several values for one entry are separate records, joined by “and”; a condition that tells them apart may be missing. Identical values can stand only once. *1 amine or outer side, *2 acyl side, *3 side chain or, on linkers, in order; H or OH if unused. Where no end group is shown, it is not given here. [ ]: non-standard residue; d: D form. Benzoyl(5-NH,2-NO2) = O=C(c1cc(N[*:1])ccc1[N+](=O)[O-])[*:2]; 2Abz = Nc1ccccc1C(=O)O
# Columns and labels:
# Format in all cases: biochemical, human
# [1] = tested on: urine taken from a person diagnosed with liver cancer; test: RP HPLC analysis of substrate cleavage in urine with liver cancer; conditions: randomly selected urine from a person diagnosed with liver cancer
# [2] = tested on: proteolytic enzymes in urine from a subject suffering from liver cancer; test: Hydrolysis of the chromogenic substrate in urine from subjects with liver cancer (absorbance at 405 nm); conditions: for Results of absorbance analysis (increase in absorbance, 405 nm): 37° C., 60 minutes, pH 8.0
# Method: (§1) The activity of the novel compounds according to the invention was studied in a group of 20 subjects diagnosed with liver cancer using the representative compound according to the invention. […] The remaining compounds according to the invention are characterized by the analogous mechanism of action. For this purpose, the representative compound according to the invention, ABZ^1-Lys^2-Ser^3-Ser^4-Asp^5-ANB^6-NH2, was dissolved in dimethyl sulfoxide (at a concentration of 0.5 mg/mL) and then 50 μL of the solution was mixed with 120 μL of a buffer (200 mM Tris-HCl, pH 8.0) and 80 μL of urine from a subject suffering from liver cancer. The measurement was performed on a 96-well plate designed for measuring absorbance and each sample was analysed in triplicate at the temperature of 37° C. The duration of the measurement was 60 minutes. During the measurement, the wavelength characteristic for the chromophore (ANB-NH2) being released was monitored at the wavelength 405 nm (range 380-430 nm).
# The observed magnitude of increase in absorbance in time is different for each of the examined samples.
# Such a result may be due to the difference in the activity as well as the amount of enzymes responsible for the enzymatic cleavage (proteolysis). […] The result indicates the […] of proteolytic enzymes characteristic of liver cancer.
# [3] = tested on: urine samples from patients with another neoplastic disease; test: Cleavage selectivity: substrate incubated with urine from patients with other cancers; conditions: for Measurement 1-3 (increase in absorbance): urine, triplicate
# Method: as §1
# Furthermore, the dependence of the cleavage selectivity of the substrate, i.e. the compound according to the invention, on the cancer being examined, was studied. […] This indicates cleavage selectivity of the compounds according to the invention, which makes them suitable for the specific detection of enzymatic activity specific to liver cancer and specific diagnosis of liver cancer.
# [4] = tested on: enzyme in the studied material (urine); test: Dependence of substrate hydrolysis on reaction pH; conditions: FIG. 4
# Method: Furthermore, measurements concerning the dependence of the proteolytic activity of the representative compound according to the invention on the reaction pH were performed.
# [5] = tested on: urine samples taken from healthy persons; test: Hydrolysis of the chromogenic substrate in urine from healthy subjects (absorbance at 405 nm); conditions: for Results of absorbance analysis (increase in absorbance, 405 nm): triplicate
substance,measurement,setting,value
"ABZ-Lys-Ser-Ser-Asp-ANB-NH2 ([2Abz]KSSD-{Benzoyl(5-NH,2-NO2)-NH2}) [chromogenic/FRET peptide substrate; ABZ is 2-aminobenzoic acid, ANB-NH2 is amide of 5-amino-2-nitrobenzoic acid]",Cleavage products of the substrate (RP HPLC),[1],cleaves into the peptide fragment ABZ-Lys-Ser-Ser-Asp-OH and the chromophore group of the compound (ANB-NH2)
same,Cleavage of the substrate in urine,[2]; all samples 1-20 from persons suffering from liver cancer,underwent cleavage
same,"Results of absorbance analysis (increase in absorbance, 405 nm)","[2]; urine sample W1, liver cancer, triplicate",0.03221 and 0.03351 and 0.02109
same,"Results of absorbance analysis (increase in absorbance, 405 nm)","[2]; urine sample W2, liver cancer, triplicate",0.02276 and 0.02037 and 0.02884
same,"Results of absorbance analysis (increase in absorbance, 405 nm)","[2]; urine sample W4, liver cancer, triplicate",0.02897 and 0.02718 and 0.02812
same,"Results of absorbance analysis (increase in absorbance, 405 nm)","[2]; urine sample W5, liver cancer, triplicate",0.171 and 0.1445 and 0.1684
same,"Results of absorbance analysis (increase in absorbance, 405 nm)","[2]; urine sample W6, liver cancer, triplicate",0.02035 and 0.01966 and 0.02513
same,"Results of absorbance analysis (increase in absorbance, 405 nm)","[2]; urine sample W8, liver cancer, triplicate",0.0186 and 0.0199 and 0.01818
same,"Results of absorbance analysis (increase in absorbance, 405 nm)","[2]; urine sample W9, liver cancer, triplicate",0.0313 and 0.02635 and 0.0275
same,"Results of absorbance analysis (increase in absorbance, 405 nm)","[2]; urine sample W10, liver cancer, triplicate",0.04583 and 0.03322 and 0.03755
same,"Results of absorbance analysis (increase in absorbance, 405 nm)","[2]; urine sample W11, liver cancer, triplicate",0.02091 and 0.01156 and 0.01536
same,"Results of absorbance analysis (increase in absorbance, 405 nm)","[2]; urine sample W12, liver cancer, triplicate",0.03055 and 0.02126 and 0.0183
same,"Results of absorbance analysis (increase in absorbance, 405 nm)","[2]; urine sample W13, liver cancer, triplicate",0.01583 and 0.01383 and 0.01431
same,"Results of absorbance analysis (increase in absorbance, 405 nm)","[2]; urine sample W14, liver cancer, triplicate",0.00394 and 0.00525 and 0.00441
same,"Results of absorbance analysis (increase in absorbance, 405 nm)","[2]; urine sample W15, liver cancer, triplicate",0.01622 and 0.01718 and 0.01233
same,"Results of absorbance analysis (increase in absorbance, 405 nm)","[2]; urine sample W16, liver cancer, triplicate",0.01265 and 0.01251 and 0.00722
same,"Results of absorbance analysis (increase in absorbance, 405 nm)","[2]; urine sample W17, liver cancer, triplicate",0.0012 and 0.0018 and 0.0015
same,"Results of absorbance analysis (increase in absorbance, 405 nm)","[2]; urine sample W18, liver cancer, triplicate",0.01937 and 0.01539 and 0.01955
same,"Results of absorbance analysis (increase in absorbance, 405 nm)","[2]; urine sample W19, liver cancer, triplicate",0.0091 and 0.0093 and 0.0089
same,"Results of absorbance analysis (increase in absorbance, 405 nm)","[2]; urine sample W20, liver cancer, triplicate",0.1528 and 0.1867 and 0.1909
same,Measurement 1-3 (increase in absorbance),"[2]; urine, cancer location Liver, selectivity test of Table 2, triplicate",0.0067 and 0.0072 and 0.0056
same,Cleavage / increase in absorbance in urine of other cancers,"[3]; testicular, intestine, kidney, prostate, pancreatic, bile duct, lung, ovarian and rectum cancer",is not subject to cleavage
same,Measurement 1-3 (increase in absorbance),[3]; cancer location Intestine,0
same,Measurement 1-3 (increase in absorbance),[3]; cancer location Kidney,0
same,Measurement 1-3 (increase in absorbance),[3]; cancer location Lung,0
same,Measurement 1-3 (increase in absorbance),[3]; cancer location Ovary,0
same,Measurement 1-3 (increase in absorbance),[3]; cancer location Pancreas,0
same,Measurement 1-3 (increase in absorbance),[3]; cancer location Prostate,0
same,Measurement 1-3 (increase in absorbance),[3]; cancer location Rectum,0
same,Measurement 1-3 (increase in absorbance),[3]; cancer location Testicle,0
same,Measurement 1-3 (increase in absorbance),[3]; cancer location bile ducts,0
same,Dependence of hydrolysis level on pH,[4],maximum activity at alkaline pH
same,"Results of absorbance analysis (increase in absorbance, 405 nm)","[5]; urine sample 21, healthy person",0.000000
same,"Results of absorbance analysis (increase in absorbance, 405 nm)","[5]; urine sample 22, healthy person",0.000000
same,"Results of absorbance analysis (increase in absorbance, 405 nm)","[5]; urine sample 23, healthy person",0.000000
same,"Results of absorbance analysis (increase in absorbance, 405 nm)","[5]; urine sample 24, healthy person",0.000000
same,"Results of absorbance analysis (increase in absorbance, 405 nm)","[5]; urine sample 25, healthy person",0.000000
same,"Results of absorbance analysis (increase in absorbance, 405 nm)","[5]; urine sample 26, healthy person",0.000000
same,"Results of absorbance analysis (increase in absorbance, 405 nm)","[5]; urine sample 27, healthy person",0.000000
same,"Results of absorbance analysis (increase in absorbance, 405 nm)","[5]; urine sample 28, healthy person",0.000000
same,"Results of absorbance analysis (increase in absorbance, 405 nm)","[5]; urine sample 29, healthy person",0.000000
same,"Results of absorbance analysis (increase in absorbance, 405 nm)","[5]; urine sample 30, healthy person",0.000000
same,"Results of absorbance analysis (increase in absorbance, 405 nm)","[5]; urine sample 31, healthy person",0.000000
same,"Results of absorbance analysis (increase in absorbance, 405 nm)","[5]; urine sample 32, healthy person",0.000000
same,"Results of absorbance analysis (increase in absorbance, 405 nm)","[5]; urine sample 33, healthy person",0.000000
same,"Results of absorbance analysis (increase in absorbance, 405 nm)","[5]; urine sample 34, healthy person",0.000000
same,"Results of absorbance analysis (increase in absorbance, 405 nm)","[5]; urine sample 35, healthy person",0.000000
same,"Results of absorbance analysis (increase in absorbance, 405 nm)","[5]; urine sample 36, healthy person",0.000000
same,"Results of absorbance analysis (increase in absorbance, 405 nm)","[5]; urine sample 37, healthy person",0.000000
same,"Results of absorbance analysis (increase in absorbance, 405 nm)","[5]; urine sample 38, healthy person",0.000000
same,"Results of absorbance analysis (increase in absorbance, 405 nm)","[5]; urine sample 39, healthy person",0.000000
same,"Results of absorbance analysis (increase in absorbance, 405 nm)","[5]; urine sample 40, healthy person",0.000000
same,Increase in absorbance / hydrolysis in urine,[5]; urine samples 21 to 40 from healthy persons,does not lead to an increase in absorbance
